# Data: the NIST ThermoML archive (doi:10.1021/je900653p)
# Numbers after ± are expanded uncertainties.
# Settings: Crystal
row,Structure (SMILES),Normal melting temperature
1,"CC12CCC(CC1)C(C)(C)O2 [1,3,3-trimethyl-2-oxabicyclo[2.2.2]octane]",1.2 ± 1.2 °C
2,Cc1ccc(C(C)C)cc1 [1-(1-methylethyl)-4-methylbenzene],-68.5 ± 0.8 °C
3,"C=C1C2CCC(C2)C1(C)C (centres undefined) [2,2-dimethyl-3-methylenebicyclo[2.2.1]heptane]",51.1 ± 0.8 °C
4,"C=C1CC[C@H]2C[C@@H]1C2(C)C [(1S,5S)-6,6-dimethyl-2-methylenebicyclo[3.1.1]heptane]",-61.5 ± 0.8 °C
